Measurements: the supplement of paper PMC11424490

Columns and labels:
[1] = tested on: NCI-H2122; experiment: combination cScore with adagrasib (Bliss gap around IC50) (%PoC); higher = stronger additive effect
Protocol: (§1)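 Combination screen of 179 inhibitors with the KRAS G12C inhibitor adagrasib (MRTX849) in dose matrices, CellTiter-Glo readout in NCI-H2122 (72 h), SW837 (144 h) and NCI-H358 cells. The cScore is the mean Bliss-independence gap (expected minus observed viability, in %PoC) over a 3x3 field around the IC50s of both drugs. Positive means additive, and >~10 is stated as clear additive.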

[2] = tested on: SW837; experiment: as above
Protocol: as §1

Compound | combination cScore with adagrasib [1] | combination cScore with adagrasib [2]
CO[C@H]1/C=C/C[C@H](C)[C@@H](C)S(=O)(=O)NC(=O)c2ccc3c(c2)N(C[C@@H]2CC[C@H]21)C[C@@]1(CCCc2cc(Cl)ccc21)CO3 [AMG176] + C=C(F)C(=O)N1CCN(c2nc(OC[C@@H]3CCCN3C)nc3c2CCN(c2cccc4cccc(Cl)c24)C3)C[C@@H]1CC#N [adagrasib] | 5.81 | -0.8
COc1cc(OC2CCN(C)CC2)ccc1Nc1ncc2c(n1)n(C1CCCC1)c(=O)n2C [AZ3146] + C=C(F)C(=O)N1CCN(c2nc(OC[C@@H]3CCCN3C)nc3c2CCN(c2cccc4cccc(Cl)c24)C3)C[C@@H]1CC#N [adagrasib] | -1.25 | 9.79
Cc1cc(Nc2nc(N[C@@H](C)c3ncc(F)cn3)ncc2Cl)[nH]n1 [AZD-1480] + C=C(F)C(=O)N1CCN(c2nc(OC[C@@H]3CCCN3C)nc3c2CCN(c2cccc4cccc(Cl)c24)C3)C[C@@H]1CC#N [adagrasib] | 3.87 | 1.14
NC(=O)Nc1cc(-c2cccc(F)c2)sc1C(=O)N[C@H]1CCCNC1 [AZD-7762] + C=C(F)C(=O)N1CCN(c2nc(OC[C@@H]3CCCN3C)nc3c2CCN(c2cccc4cccc(Cl)c24)C3)C[C@@H]1CC#N [adagrasib] | -0.23 | -2.72
COc1cc2cc(c1Cl)N(C)C(=O)C[C@H](OC(=O)C(C)C)[C@]1(C)O[C@@H]1[C@H](C)[C@@H]1C[C@@](O)(NC(=O)O1)[C@H](OC)/C=C/C=C(\C)C2 [Ansamitocin P3] + C=C(F)C(=O)N1CCN(c2nc(OC[C@@H]3CCCN3C)nc3c2CCN(c2cccc4cccc(Cl)c24)C3)C[C@@H]1CC#N [adagrasib] | -2.93 | 2.67
Cc1ncc([N+](=O)[O-])n1CCOC(=O)NC(Nc1ncccn1)C(Cl)(Cl)Cl (stereo not drawn) [Apcin] + C=C(F)C(=O)N1CCN(c2nc(OC[C@@H]3CCCN3C)nc3c2CCN(c2cccc4cccc(Cl)c24)C3)C[C@@H]1CC#N [adagrasib] | 2.71 | -0.93
Nc1ncn([C@@H]2O[C@H](CO)[C@@H](O)[C@H]2O)c(=O)n1 [Azacitidine] + C=C(F)C(=O)N1CCN(c2nc(OC[C@@H]3CCCN3C)nc3c2CCN(c2cccc4cccc(Cl)c24)C3)C[C@@H]1CC#N [adagrasib] | -1.39 | 9.12
CCN1CCN(c2ccc(Nc3cc(N(C)C(=O)Nc4c(Cl)c(OC)cc(OC)c4Cl)ncn3)cc2)CC1 [BGJ398] + C=C(F)C(=O)N1CCN(c2nc(OC[C@@H]3CCCN3C)nc3c2CCN(c2cccc4cccc(Cl)c24)C3)C[C@@H]1CC#N [adagrasib] | -3.17 | 3.09
O=C(Cc1ccccc1)Nc1nnc(CCSCCc2nnc(NC(=O)Cc3ccccc3)s2)s1 [BPTES] + C=C(F)C(=O)N1CCN(c2nc(OC[C@@H]3CCCN3C)nc3c2CCN(c2cccc4cccc(Cl)c24)C3)C[C@@H]1CC#N [adagrasib] | 8.57 | 7.09
Nc1nc(Nc2ccc3c(c2)CC[C@@H](N2CCCC2)CC3)nn1-c1cc2c(nn1)-c1ccccc1CCC2 [Bemcentinib] + C=C(F)C(=O)N1CCN(c2nc(OC[C@@H]3CCCN3C)nc3c2CCN(c2cccc4cccc(Cl)c24)C3)C[C@@H]1CC#N [adagrasib] | -0.08 | -0.26
C=C(c1ccc(C(=O)O)cc1)c1cc2c(cc1C)C(C)(C)CCC2(C)C [Bexarotene] + C=C(F)C(=O)N1CCN(c2nc(OC[C@@H]3CCCN3C)nc3c2CCN(c2cccc4cccc(Cl)c24)C3)C[C@@H]1CC#N [adagrasib] | -4.01 | 0.535
CC(O)(CS(=O)(=O)c1ccc(F)cc1)C(=O)Nc1ccc(C#N)c(C(F)(F)F)c1 (stereo not drawn) [Bicalutamide] + C=C(F)C(=O)N1CCN(c2nc(OC[C@@H]3CCCN3C)nc3c2CCN(c2cccc4cccc(Cl)c24)C3)C[C@@H]1CC#N [adagrasib] | 4.44 | 2.23
CO[C@H]1CC[C@H](n2c([C@@H]3CCCC(=O)N3c3ccc(F)c(F)c3)nc3cc(-c4c(C)noc4C)ccc32)CC1 [CCS1477] + C=C(F)C(=O)N1CCN(c2nc(OC[C@@H]3CCCN3C)nc3c2CCN(c2cccc4cccc(Cl)c24)C3)C[C@@H]1CC#N [adagrasib] | -1.66 | 7.35
O=C(O)CCCCC(CCSCc1ccccc1)SCc1ccccc1 (stereo not drawn) [CPI-613] + C=C(F)C(=O)N1CCN(c2nc(OC[C@@H]3CCCN3C)nc3c2CCN(c2cccc4cccc(Cl)c24)C3)C[C@@H]1CC#N [adagrasib] | -5.48 | 1.41
CCCCCOC(=O)Nc1nc(=O)n([C@@H]2O[C@H](C)[C@@H](O)[C@H]2O)cc1F [Capecitabin] + C=C(F)C(=O)N1CCN(c2nc(OC[C@@H]3CCCN3C)nc3c2CCN(c2cccc4cccc(Cl)c24)C3)C[C@@H]1CC#N [adagrasib] | -6.31 | 2.14
C[C@H](CS)C(=O)N1CCC[C@H]1C(=O)O [Captopril] + C=C(F)C(=O)N1CCN(c2nc(OC[C@@H]3CCCN3C)nc3c2CCN(c2cccc4cccc(Cl)c24)C3)C[C@@H]1CC#N [adagrasib] | -0.24 | -3.8
O=C(O)C1(C(=O)O)CCC1.[NH2-].[NH2-].[Pt+2] [Carboplatin] + C=C(F)C(=O)N1CCN(c2nc(OC[C@@H]3CCCN3C)nc3c2CCN(c2cccc4cccc(Cl)c24)C3)C[C@@H]1CC#N [adagrasib] | -1.99 | -6.32
COc1cc2c(Oc3ccc4[nH]c(C)cc4c3F)ncnc2cc1OCCCN1CCCC1 [Cediranib] + C=C(F)C(=O)N1CCN(c2nc(OC[C@@H]3CCCN3C)nc3c2CCN(c2cccc4cccc(Cl)c24)C3)C[C@@H]1CC#N [adagrasib] | -4.17 | -0.83
N.N.[Cl][Pt][Cl] [Cisplatin] + C=C(F)C(=O)N1CCN(c2nc(OC[C@@H]3CCCN3C)nc3c2CCN(c2cccc4cccc(Cl)c24)C3)C[C@@H]1CC#N [adagrasib] | -1.07 | -1.26
Nc1nc(Cl)nc2c1ncn2[C@@H]1O[C@H](CO)[C@@H](O)[C@@H]1F [Clofarabine] + C=C(F)C(=O)N1CCN(c2nc(OC[C@@H]3CCCN3C)nc3c2CCN(c2cccc4cccc(Cl)c24)C3)C[C@@H]1CC#N [adagrasib] | -3.89 | 1.46
O=C(c1ccc(F)c(F)c1Nc1ccc(I)cc1F)N1CC(O)([C@@H]2CCCCN2)C1 [Cobimetinib] + C=C(F)C(=O)N1CCN(c2nc(OC[C@@H]3CCCN3C)nc3c2CCN(c2cccc4cccc(Cl)c24)C3)C[C@@H]1CC#N [adagrasib] | 2.78 | 13.2
Nc1ccn([C@@H]2O[C@H](CO)[C@@H](O)[C@@H]2O)c(=O)n1 [Cytarabin] + C=C(F)C(=O)N1CCN(c2nc(OC[C@@H]3CCCN3C)nc3c2CCN(c2cccc4cccc(Cl)c24)C3)C[C@@H]1CC#N [adagrasib] | -0.23 | 6.75
CC(C)(C)c1nc(-c2cccc(NS(=O)(=O)c3c(F)cccc3F)c2F)c(-c2ccnc(N)n2)s1 [Dabrafenib] + C=C(F)C(=O)N1CCN(c2nc(OC[C@@H]3CCCN3C)nc3c2CCN(c2cccc4cccc(Cl)c24)C3)C[C@@H]1CC#N [adagrasib] | -9.32 | -0.35
Nc1ncn([C@H]2C[C@H](O)[C@@H](CO)O2)c(=O)n1 [Decitabine] + C=C(F)C(=O)N1CCN(c2nc(OC[C@@H]3CCCN3C)nc3c2CCN(c2cccc4cccc(Cl)c24)C3)C[C@@H]1CC#N [adagrasib] | 3.82 | -0.47
C[C@@H]1C[C@H]2[C@@H]3CCC4=CC(=O)C=C[C@]4(C)[C@@]3(F)[C@@H](O)C[C@]2(C)[C@@]1(O)C(=O)CO [Dexamethasone] + C=C(F)C(=O)N1CCN(c2nc(OC[C@@H]3CCCN3C)nc3c2CCN(c2cccc4cccc(Cl)c24)C3)C[C@@H]1CC#N [adagrasib] | -4.66 | -0.93
CC(=O)O[C@@]12CO[C@@H]1C[C@H](O)[C@@]1(C)C(=O)[C@H](O)C3=C(C)[C@@H](OC(=O)[C@H](O)[C@@H](NC(=O)OC(C)(C)C)c4ccccc4)C[C@@](O)([C@@H](OC(=O)c4ccccc4)[C@H]21)C3(C)C [Docetaxel] + C=C(F)C(=O)N1CCN(c2nc(OC[C@@H]3CCCN3C)nc3c2CCN(c2cccc4cccc(Cl)c24)C3)C[C@@H]1CC#N [adagrasib] | 3.05 | 0.74
COc1cccc2c1C(=O)c1c(O)c3c(c(O)c1C2=O)C[C@@](O)(C(=O)CO)C[C@@H]3O[C@H]1C[C@H](N)[C@H](O)[C@H](C)O1 [Doxorubicin] + C=C(F)C(=O)N1CCN(c2nc(OC[C@@H]3CCCN3C)nc3c2CCN(c2cccc4cccc(Cl)c24)C3)C[C@@H]1CC#N [adagrasib] | -0.16 | 4.49
CN(NC(=O)CC(=O)NN(C)C(=S)c1ccccc1)C(=S)c1ccccc1 [Elesclomol] + C=C(F)C(=O)N1CCN(c2nc(OC[C@@H]3CCCN3C)nc3c2CCN(c2cccc4cccc(Cl)c24)C3)C[C@@H]1CC#N [adagrasib] | 2.19 | 6.34
CNC(=O)c1ccc(N2C(=S)N(c3ccc(C#N)c(C(F)(F)F)c3)C(=O)C2(C)C)cc1F [Enzalutamide] + C=C(F)C(=O)N1CCN(c2nc(OC[C@@H]3CCCN3C)nc3c2CCN(c2cccc4cccc(Cl)c24)C3)C[C@@H]1CC#N [adagrasib] | 4.58 | 7.72
